Consider one molecule from patent US6638938B1, “Method for preventing tissue injury from hypoxia” (Cell Therapeutics, Inc., priority 1993, dated 2003).

Bounds are passed on as bounds.

The assay deals with LPAAT (lysophosphatidic acyltransferase). The experiment in a line: inhibition of LPAAT activity. In kind it is biochemical. Conditions: extremely weak inhibitor; above clinically achievable concentrations.

For the molecule `CC(=O)CCCCn1c(=O)c2c(ncn2C)n(C)c1=O` [pentoxifylline, 1-(5-oxohexyl)3,7-dimethylxanthine, reference compound], the “concentration required for inhibition of LPAAT activity” value is over 1 mM.
